Tests used:
5-HT concentrations [1] = test: Brain microdialysis, acute oral administration; 5-HT in perfusate by HPLC with electrochemical detection; assay type: in vivo; settings: brain dialysate
Description: (§1) Animals with dialysis probes inserted in brain regions were placed in the dialysis apparatus and the probes perfused with artificial cerebrospinal fluid. Samples of perfusate were collected every 20 minutes after an initial 30 minute washout period. Basal samples were collected for 2 hours before administration of drug or vehicle by the oral route. Further samples were collected for up to 4 hours post drug administration. Samples were analysed for 5-HT by HPLC with electrochemical detection.
Data was expressed as a percentage of a pre-injection control, obtained by averaging the last three samples prior to drug/vehicle administration. Transformed data (natural log of percentages) was analysed by ANOVA with repeated measures.

5-HT concentrations [2] = test: Brain microdialysis after chronic (21 day) administration; 5-HT in perfusate; assay type: in vivo; settings: 10 mg/kg, percentage increase over vehicle treated controls
Description: as §1
The method differed from that for acute administration in that animals were treated with fluoxetine or vehicle for 21 days prior to placement in the dialysis apparatus. The subsequent manipulations were as described above. The 5-HT concentration in the treated group was expressed as the percentage increase over vehicle treated controls.

SMILES	% increase in 5-HT concentrations (5-HT concentrations [1]; 10 mg/kg, oral)	% increase in 5-HT concentrations (5-HT concentrations [1]; 10 or 20 mg/kg, oral (maximum possible response))	% increase in 5-HT concentrations (5-HT concentrations [2])
CC1(C)C(=O)N(CCN2CCC(C(=O)c3ccc(F)cc3)CC2)c2ccccc21.Cl [Compound of formula (I), 1-[2-[4-(4-fluorobenzoyl)-1-piperidinyl]ethyl]-1,3-dihydro-3,3-dimethyl-2H-indol-2-one, monohydrochloride]	110%	–	–
CNCCC(Oc1ccc(C(F)(F)F)cc1)c1ccccc1 (stereo not drawn) [Fluoxetine, N-methyl-3-(p-trifluoromethylphenoxy)-3-phenylpropylamine]	–	99%	184%
